Broadly, the Kd is the free concentration of one partner at which half of the binding sites on the other are occupied at equilibrium, for simple one-to-one binding. The low end stands for tighter binding, the high end for weaker binding. The term IC50 denotes the midpoint of a concentration-inhibition curve. Higher therefore signals weaker potency.

The target of assay [1] is T1, Bromodomain and PHD finger-containing protein 3 (Homo sapiens, UniProt Q9ULD4).
T1 sequence (Q9ULD4 whole entry): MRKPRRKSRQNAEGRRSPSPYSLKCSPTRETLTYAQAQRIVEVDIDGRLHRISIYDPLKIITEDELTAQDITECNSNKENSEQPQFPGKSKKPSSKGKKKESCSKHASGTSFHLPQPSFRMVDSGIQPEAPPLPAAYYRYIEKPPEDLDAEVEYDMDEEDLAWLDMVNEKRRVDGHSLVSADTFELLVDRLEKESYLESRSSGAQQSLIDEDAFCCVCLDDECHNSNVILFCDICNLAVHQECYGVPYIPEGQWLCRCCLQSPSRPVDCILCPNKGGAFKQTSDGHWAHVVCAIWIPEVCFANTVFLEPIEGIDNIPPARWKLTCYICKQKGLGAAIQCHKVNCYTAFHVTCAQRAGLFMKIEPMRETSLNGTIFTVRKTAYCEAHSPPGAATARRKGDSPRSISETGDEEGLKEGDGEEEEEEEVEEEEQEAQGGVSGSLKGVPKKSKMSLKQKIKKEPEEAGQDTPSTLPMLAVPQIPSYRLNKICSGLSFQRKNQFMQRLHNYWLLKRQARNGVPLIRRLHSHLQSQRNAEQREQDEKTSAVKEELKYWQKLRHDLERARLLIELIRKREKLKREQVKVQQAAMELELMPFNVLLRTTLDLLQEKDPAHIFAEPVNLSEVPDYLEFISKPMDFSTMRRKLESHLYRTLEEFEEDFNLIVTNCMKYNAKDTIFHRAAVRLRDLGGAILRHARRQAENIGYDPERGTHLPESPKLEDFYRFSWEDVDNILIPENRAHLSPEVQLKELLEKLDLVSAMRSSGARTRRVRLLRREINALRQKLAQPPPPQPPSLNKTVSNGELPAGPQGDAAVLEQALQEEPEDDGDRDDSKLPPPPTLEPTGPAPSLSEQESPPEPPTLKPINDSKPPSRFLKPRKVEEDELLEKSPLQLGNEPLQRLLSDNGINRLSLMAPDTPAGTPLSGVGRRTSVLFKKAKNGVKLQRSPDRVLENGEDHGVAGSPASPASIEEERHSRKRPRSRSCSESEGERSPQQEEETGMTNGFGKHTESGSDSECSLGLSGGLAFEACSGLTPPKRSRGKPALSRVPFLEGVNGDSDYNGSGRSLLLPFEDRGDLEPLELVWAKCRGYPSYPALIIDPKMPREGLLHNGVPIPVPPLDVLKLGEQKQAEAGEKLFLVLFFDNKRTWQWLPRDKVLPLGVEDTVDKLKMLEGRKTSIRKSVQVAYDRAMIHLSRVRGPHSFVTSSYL
Description: Binding affinity to human partial length BRPF3 (E588 to G701 residues) expressed in bacterial expression system by BROMOscan assay.

The target in assay [2] is T2, ATPase family AAA domain-containing protein 2 (Homo sapiens, UniProt Q6PL18).
T2 sequence (Q6PL18 whole entry): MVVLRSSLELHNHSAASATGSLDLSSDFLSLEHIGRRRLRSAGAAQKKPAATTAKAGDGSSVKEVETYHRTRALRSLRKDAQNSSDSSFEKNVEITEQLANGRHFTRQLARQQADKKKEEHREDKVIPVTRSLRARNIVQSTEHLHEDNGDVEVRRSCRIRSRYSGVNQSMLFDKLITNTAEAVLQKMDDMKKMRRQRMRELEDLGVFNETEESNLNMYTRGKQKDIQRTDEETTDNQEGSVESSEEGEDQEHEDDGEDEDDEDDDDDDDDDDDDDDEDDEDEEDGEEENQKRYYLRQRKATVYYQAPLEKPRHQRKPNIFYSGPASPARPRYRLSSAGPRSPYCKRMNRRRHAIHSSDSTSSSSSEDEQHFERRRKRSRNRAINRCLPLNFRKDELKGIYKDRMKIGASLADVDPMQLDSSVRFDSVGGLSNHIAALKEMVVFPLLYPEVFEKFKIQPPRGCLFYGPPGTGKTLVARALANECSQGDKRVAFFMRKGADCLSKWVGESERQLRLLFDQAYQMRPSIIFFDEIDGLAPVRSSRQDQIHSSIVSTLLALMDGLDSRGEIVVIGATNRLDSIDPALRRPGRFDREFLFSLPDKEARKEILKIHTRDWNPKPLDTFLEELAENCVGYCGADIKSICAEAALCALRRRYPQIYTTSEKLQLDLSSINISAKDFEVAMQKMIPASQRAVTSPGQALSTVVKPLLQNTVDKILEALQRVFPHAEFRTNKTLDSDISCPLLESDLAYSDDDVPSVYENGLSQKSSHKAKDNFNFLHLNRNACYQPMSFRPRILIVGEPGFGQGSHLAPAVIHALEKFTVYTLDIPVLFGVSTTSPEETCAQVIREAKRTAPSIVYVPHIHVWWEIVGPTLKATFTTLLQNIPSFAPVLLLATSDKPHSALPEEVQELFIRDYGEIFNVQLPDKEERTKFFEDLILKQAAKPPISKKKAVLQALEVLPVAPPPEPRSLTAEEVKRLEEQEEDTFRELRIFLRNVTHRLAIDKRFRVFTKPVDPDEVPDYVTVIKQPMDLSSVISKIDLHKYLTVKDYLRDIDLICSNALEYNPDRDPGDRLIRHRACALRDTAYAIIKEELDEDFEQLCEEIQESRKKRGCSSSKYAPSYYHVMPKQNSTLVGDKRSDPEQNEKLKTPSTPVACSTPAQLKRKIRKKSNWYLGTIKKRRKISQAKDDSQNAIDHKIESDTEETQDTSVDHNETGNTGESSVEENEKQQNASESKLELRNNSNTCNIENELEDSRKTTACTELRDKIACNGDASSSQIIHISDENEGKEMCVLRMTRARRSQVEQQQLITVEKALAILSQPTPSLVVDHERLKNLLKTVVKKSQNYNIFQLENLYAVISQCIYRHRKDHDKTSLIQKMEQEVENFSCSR
Description: Displacement of Alexa Fluor 488-labeled ligand from FLAG-6His-Tev-fused ATAD2 (981 to 1121 residue) (unknown origin) measured after 30 mins by TR-FRET assay. (In TR-FRET formats the signal depends on donor and acceptor labels being close together.)

In assay [1], `C[C@H]1CCN(S(=O)(=O)c2cc(NC(=O)CN3C(=O)N[C@@](C)(C4CC4)C3=O)ccc2Br)C1` had a Kd of 126 nM. This compound also gave an IC50 in assay [2] of 63.1 nM.

The record behind these values is ChEMBL document CHEMBL4354881, “Optimization of Potent ATAD2 and CECR2 Bromodomain Inhibitors with an Atypical Binding Mode” (J Med Chem, 2020).
